{"source": "paper PMC3985765", "about": "(Biochemistry, 2014)", "molecular_target": "T1, FlK (fluoroacetyl-CoA thioesterase) (Streptantibioticus cattleyicolor, UniProt Q1EMV2)", "T1 sequence (Q1EMV2 1-139)": "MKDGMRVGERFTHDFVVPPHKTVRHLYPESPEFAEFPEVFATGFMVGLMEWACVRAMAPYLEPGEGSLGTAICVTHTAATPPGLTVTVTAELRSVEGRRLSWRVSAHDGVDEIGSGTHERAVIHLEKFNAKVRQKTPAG", "assay": "pre-steady-state rapid chemical quench, HPLC of CoA release", "type": "biochemical", "conditions": "Bis-Tris 100 mM pH 6.0; covalent acyl-enzyme on Glu 50"}
{"smiles": "CC(C)(COP(=O)(O)OP(=O)(O)OC[C@H]1O[C@@H](n2cnc3c(N)ncnc32)[C@H](O)[C@@H]1OP(=O)(O)O)[C@@H](O)C(=O)NCCC(=O)NCCSC(=O)CF", "note": "[fluoroacetyl-CoA]", "values": [{"measurement": "pre-steady-state rapid chemical quench, HPLC of CoA release", "result": "we observed a burst phase of product formation consistent with enzyme acylation"}]}
